For three compounds, Ki and IC50 results are on record in ChEMBL document CHEMBL1129981 (J Med Chem, 1997).

The target in assay [1] is T1, Adrenergic receptor alpha-2 (Rattus norvegicus, UniProt P22086+P19328+P22909).
T1 sequence (P22086 whole entry): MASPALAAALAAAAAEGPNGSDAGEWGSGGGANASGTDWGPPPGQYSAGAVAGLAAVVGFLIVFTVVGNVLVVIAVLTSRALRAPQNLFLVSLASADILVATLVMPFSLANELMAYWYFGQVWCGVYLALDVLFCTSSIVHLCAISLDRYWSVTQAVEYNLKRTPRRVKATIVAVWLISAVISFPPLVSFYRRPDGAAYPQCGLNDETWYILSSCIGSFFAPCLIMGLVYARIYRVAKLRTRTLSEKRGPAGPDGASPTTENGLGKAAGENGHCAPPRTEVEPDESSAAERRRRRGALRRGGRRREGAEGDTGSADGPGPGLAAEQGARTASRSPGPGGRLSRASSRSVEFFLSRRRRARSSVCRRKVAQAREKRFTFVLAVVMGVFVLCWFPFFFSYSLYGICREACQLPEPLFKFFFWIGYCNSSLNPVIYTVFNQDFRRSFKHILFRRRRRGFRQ
T1 sequence (P19328 whole entry): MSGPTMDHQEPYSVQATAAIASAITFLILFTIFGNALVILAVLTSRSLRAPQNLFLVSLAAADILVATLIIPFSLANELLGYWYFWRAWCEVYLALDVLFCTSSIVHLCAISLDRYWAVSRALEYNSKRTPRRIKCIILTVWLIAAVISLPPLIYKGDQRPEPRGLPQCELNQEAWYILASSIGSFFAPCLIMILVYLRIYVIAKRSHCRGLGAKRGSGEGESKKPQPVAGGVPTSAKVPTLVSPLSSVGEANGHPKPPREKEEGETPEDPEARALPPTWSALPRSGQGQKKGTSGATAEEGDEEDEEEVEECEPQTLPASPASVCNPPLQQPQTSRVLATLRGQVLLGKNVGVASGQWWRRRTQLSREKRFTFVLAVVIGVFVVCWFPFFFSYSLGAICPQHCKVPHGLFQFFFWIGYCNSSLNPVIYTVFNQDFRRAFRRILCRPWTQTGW
T1 sequence (P22909 whole entry): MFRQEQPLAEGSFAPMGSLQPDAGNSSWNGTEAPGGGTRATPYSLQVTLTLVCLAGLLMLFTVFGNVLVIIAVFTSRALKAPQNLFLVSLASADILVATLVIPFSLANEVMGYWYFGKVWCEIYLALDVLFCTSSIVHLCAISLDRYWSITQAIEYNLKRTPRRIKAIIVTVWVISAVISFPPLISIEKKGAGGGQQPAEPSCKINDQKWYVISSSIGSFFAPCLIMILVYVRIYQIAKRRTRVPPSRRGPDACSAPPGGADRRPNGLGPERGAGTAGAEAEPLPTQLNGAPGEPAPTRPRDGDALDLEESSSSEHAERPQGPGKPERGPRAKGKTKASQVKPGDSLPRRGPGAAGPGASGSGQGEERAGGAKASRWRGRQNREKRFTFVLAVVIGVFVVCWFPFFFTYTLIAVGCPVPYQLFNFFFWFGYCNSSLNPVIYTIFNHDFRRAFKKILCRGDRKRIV
The assay is described as follows: Ability to displace [3H]rauwolscine from Alpha-2 adrenergic receptor in rat cortical membranes. Type of assay: cell membranes.

The target in assay [2] is Sodium-dependent serotonin transporter (Rattus norvegicus, UniProt P31652). Kind of assay: Inhibition of uptake of [3H]5-HT in synaptosomes from rat cortex. Type of assay: functional, subcellular, Brain.
Sodium-dependent serotonin transporter, sequence (P31652 whole entry): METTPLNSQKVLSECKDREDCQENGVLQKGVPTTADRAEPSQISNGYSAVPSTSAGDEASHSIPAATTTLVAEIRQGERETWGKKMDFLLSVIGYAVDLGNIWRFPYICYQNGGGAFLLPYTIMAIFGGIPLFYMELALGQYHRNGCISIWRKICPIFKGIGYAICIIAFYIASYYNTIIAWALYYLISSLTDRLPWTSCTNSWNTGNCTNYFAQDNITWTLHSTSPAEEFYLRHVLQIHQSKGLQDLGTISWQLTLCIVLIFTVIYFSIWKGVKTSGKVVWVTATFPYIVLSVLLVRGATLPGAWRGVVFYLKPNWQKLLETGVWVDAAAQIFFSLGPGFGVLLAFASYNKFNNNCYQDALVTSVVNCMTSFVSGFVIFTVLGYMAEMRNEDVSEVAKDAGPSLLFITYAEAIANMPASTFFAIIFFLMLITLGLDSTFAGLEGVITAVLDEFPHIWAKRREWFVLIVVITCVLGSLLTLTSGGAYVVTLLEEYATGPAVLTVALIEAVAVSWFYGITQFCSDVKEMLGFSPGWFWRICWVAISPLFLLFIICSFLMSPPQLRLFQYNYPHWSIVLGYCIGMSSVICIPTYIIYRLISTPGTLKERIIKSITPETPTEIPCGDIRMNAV

By Ki is commonly meant a dissociation constant, usually derived from enzyme kinetics or from competition with a known ligand. Low readings indicate tighter binding, high ones weaker binding. What is called IC50 is the concentration that inhibits the measured activity by half. In the case of `CN(CCc1ccc2c(c1)OCO2)C[C@@H]1CC[C@@H]2CCOc3cccc1c32`, the Ki in assay [1] amounted to 113 nM. Further, the midpoint of inhibition in assay [2], the IC50, lay at 862 nM.

In assay [1], `CN(CCc1ccc2c(c1)OCO2)C[C@@H]1CC[C@H]2CCOc3cccc1c32` returned a Ki of 94.1 nM. In addition, the midpoint of inhibition in assay [2], the IC50, lay at 436 nM.

Compound `COc1cccc2c1CCC[C@H]2CN(C)CCc1ccc2ocnc2c1` came in with a Ki in assay [1] of 1.77 nM. For the same compound, half-maximal inhibition in assay [2] (IC50) was put at 16.7 nM.
